Results published in a melting point compilation (Tetko et al.; mined from patent text by program, amines drawn as free bases though some values may be those of a salt).

SMILES | melting point
O=C1CN(CCCBr)Oc2ccccc21 | 90 to 92 °C
COC(=O)C1Oc2ccccc2Cc2cccc(Cl)c2O1 (stereo not given) | 107 to 108 °C
c1ccc2nc(CSc3nc4cccc5c4n3CCC5)ccc2c1 | 125 to 126 °C
CC(=O)OC1OCC[C@@H]1NC(=O)[C@H](CC(C)C)NC(=O)[C@H](CC(C)C)NC(=O)c1ccc2c(c1)Nc1ccccc1S2 (stereo not given in full) | 121 to 122 °C
CCOC(=O)COc1cc(C)nc2c(O)cccc12 | 97 to 98 °C
Cc1ccc(C)c(Oc2ccc(C#N)cc2S(=O)(=O)N2CCNCC2)c1 | 60 to 72 °C
O=c1cc(-c2ccncc2)nc2n1Cc1ccccc1N2 | 315 to 317 °C
COc1ccc(C(=O)Nc2ccccc2)cc1NC(=S)Nc1cccc(C(F)(F)F)c1 | 177 to 178 °C
Cc1ccccc1C(=O)Nc1ccc(C(=O)N2Cc3cccn3Cc3sccc32)cc1 | 162 to 188 °C
CCCCc1ncc(C=C2C(=O)NC(=O)N2CCCC)n1Cc1ccccc1C(=O)O | 287 to 289 °C
COc1ccc(N)c2nccc(Cl)c12 | 111 to 115 °C
O=S1(=O)N=C(O)c2ccc(-c3ccccn3)cc21 | 305 to 311 °C
CC1(C)N=C(c2ccccc2Cl)c2cc(N)ccc2-n2cnnc21 | 264 °C
CC(SC1COC(C=CC=Cc2ccc(C#N)cc2F)OC1)C(O)(Cn1cncn1)c1ccc(F)cc1F (stereo not given) | 111 to 112 °C
CCC(C)(C)OC(=O)NC(C)(Cc1c[nH]c2ccccc12)C(=O)NCCc1cccnc1 (stereo not given) | 95 to 105 °C
COc1ccc(C=O)c(Cl)c1OC(C)=O | 48 to 50 °C
FCc1ccc(-c2cn([C@H]3CN4CCC3CC4)nn2)cc1 | 138 °C
COc1nc(NCCc2ccc(F)cc2)nc(-c2ccc(OC)c(S(=O)(=O)NC3CC3)c2)n1 | 200 to 201 °C
COc1cc(OC(C)(C)C(=O)O)c(C=CC(=O)c2ccc(C(=O)O)cc2)cc1-c1cccs1 | 223 to 225 °C
Cc1cc(Oc2ccc(Cl)c(Cl)c2)ccc1S(C)(=O)=O | 154 to 156 °C
C=CC(=O)NC(C)(C)C(=O)NCC(OC)OC | 80 to 82 °C
CS(=O)(=O)N(Cc1cccnc1)c1ccccc1 | 104 to 105 °C
O=C(Cn1ncc(-c2ccccc2)c1-c1ccccc1)NCCCN1CCCC1 | 75 to 79 °C
Nc1ccc(CCNC(=O)C(F)(F)F)cc1 | 81 to 85 °C
COC(=O)c1c(Cl)nc(N2CCC(O)CC2)nc1NCc1ccc(OC)c(Cl)c1 | 138 to 139 °C

SMILES | melting point
Cc1nc(NC(=O)Nc2ccc(N3CCN(C(=O)Nc4ccc(OCCO)cc4C(F)(F)F)CC3)cc2)sc1C | 166 to 167 °C
O=C(c1cccs1)c1cnn2c(-c3cccc(NCCc4ccccc4)c3)ccnc12 | 118 to 120 °C
CC(C)c1ccc(S(=O)(=O)n2c(Cc3ccc(C(=O)O)c(O)c3)cc3cc(Cl)ccc32)cc1 | 139 °C
Cc1nnn(CC(C)n2nnc3cc4c(=O)n(C5CC5)nnc4cc3c2=O)n1 (stereo not given) | 157 to 160 °C
O=C(OCC1CCc2c(O)cccc2C1)N(c1ccccc1)c1ccccc1 (stereo not given) | 96 to 98 °C
Cc1cc(Cl)ccc1-c1nn(C(C)(C)C(=O)N(C)C)cc1C | 99 to 100 °C
CCCCCCCCCCCCCCCCCCOc1cc(N)cc(OC(C)=O)c1 | 73 to 74 °C
N#CC(CCN1CCC(C(=O)ON2C(=O)c3ccccc3C2=O)(c2ccccc2)CC1)(c1ccccc1)c1ccccc1 | 156 to 158 °C
CCN(CC)c1ccc(-c2cc(-c3ccc(C(=O)O)cc3)ccc2CCCN)cc1C(C)(C)C | 272 °C
Cc1cccc2cc(C(=O)Cn3ccnc3)ccc12 | 264 °C
COc1cc(Oc2cccc(C(F)(F)F)c2)nc(C(=O)Nc2ccccc2)c1 | 131 to 133 °C
CCOc1nn(-c2c(Cl)cc(C(F)(F)F)cc2Cl)c(N)c1C(=O)c1cccc(C(F)(F)F)c1 | 77 to 78 °C
COc1cc(NC(=O)c2cc(Br)ccc2O)cc(OC)c1 | 207 to 209 °C
CCCCc1nc2cccc(C(=O)O)c2n1Cc1ccc(-c2ccccc2-c2nc(=O)o[nH]2)cc1 | 165 to 167 °C
CCCCC1(CCCC)CS(=O)(=O)c2ccc(N(C)C)cc2C(c2ccc(OCC(=O)NCC(=O)O)cc2)C1O (stereo not given) | 149 to 150 °C
CCOC(=O)c1ccc2nc(CC3CCN(c4ccc(Cl)nn4)CC3)sc2c1 | 158 °C
Cc1c(-c2ccc(C3CCCCC3)cc2)nc2ccc(F)cc2c1C(=O)O | 316 to 323 °C
COc1ccc2c(O)c(-c3ccccc3OC)c(=O)[nH]c2c1 | > 300 °C
CC(C)(C)CCCC(=O)Cn1ccnc1 | 45 to 46 °C
COc1ccc2c(c1)c(CC(=O)O)c(C)n2CC1CCCCC1 | 173 to 175 °C
CCN(CC)C(=O)c1cc2ccc(C)cc2c(-c2ccccc2Cl)n1 | 162 °C
CSc1sc(C(=O)O)c2c1-c1nn(C)cc1CC2 | 290 to 291 °C
O=C1CCCCC1c1cncc(Br)c1 (stereo not given) | 67 to 69 °C
Cc1csc2nccn12 | 165 to 168 °C
CCOC(=O)C(=CNC1CC1)C(=O)c1c(F)cc(F)c(F)c1F | 107 to 108 °C
